Active and inactive are the calls of the source. The rule behind the calls is not given here.

The test system of the first assay is Mus musculus. The assay can be described thus: Anti-inflammatory activity in BALB/c mouse model of carrageenan-induced paw edema at 20 mg/kg, po measured for 0.5 to 6 hrs. Format: functional, organism-based. As to conditions: time 0.5-6 hrs. For orientation: Carrageenan injected into the paw causes an acute inflammation.
Regarding `O=C(NCc1ccc(OC(F)(F)F)cc1)NC1CCN(C(=O)Cc2ccc3c(c2)OCO3)CC1`, the outcome was Active.

With `COc1cc(CCC(=O)N2CCC(NC(=O)NCc3ccc(OC(F)(F)F)cc3)CC2)cc(OC)c1`, the outcome was Active.

On to `O=C(NCc1ccc(OC(F)(F)F)cc1)NC1CCN(C(=O)Cc2cccc(OC(F)(F)F)c2)CC1`, for which the result was Active.

As to `COc1cccc(CC(=O)N2CCC(NC(=O)NCc3ccc(OC(F)(F)F)cc3)CC2)c1`, the result was Active.

A further assay concerns Mus musculus. The assay can be described thus: Anti-inflammatory activity in BALB/c mouse model of carrageenan-induced paw edema assessed as inhibition of paw swelling at 20 mg/kg, po measured for 0.5 hrs relative to control. Format: functional.
Settings: not given
Turning to `O=C(NCc1ccc(OC(F)(F)F)cc1)NC1CCN(C(=O)Cc2ccc3c(c2)OCO3)CC1`, the Imax worked out at 36.3%.

With `COc1cc(CCC(=O)N2CCC(NC(=O)NCc3ccc(OC(F)(F)F)cc3)CC2)cc(OC)c1`, the Imax turned out to be 28.3%.

As for `CS(=O)(=O)c1ccc(CC(=O)N2CCC(NC(=O)NCc3ccc(OC(F)(F)F)cc3)CC2)cc1`, the Imax stood at 35.9%.

As for `O=C(NCc1ccc(OC(F)(F)F)cc1)NC1CCN(C(=O)Cc2cccc(OC(F)(F)F)c2)CC1`, the Imax is on record as 39.7%.

For the next assay, the system named is Mus musculus. Nature of the assay: Anti-inflammatory activity in BALB/c mouse model of carrageenan-induced paw edema assessed as inhibition of paw swelling at 20 mg/kg, po measured for 0.5 to 6 hrs relative to control. The conditions noted are these: Mus musculus, BALB/c, time 0.5-6 hrs. In kind it is functional.
Usually inhibition in vivo stands for how much of the control response was suppressed. On to `CCC(=O)N1CCC(NC(=O)Nc2ccc(OC(F)(F)F)cc2)CC1`, for which the inhibition in vivo at 20 mg/kg was found to be 28.8%.

The assay is the same for the next values; noted with them: time 0.5-6 hrs.
In the case of `COc1cc(OC)cc(-c2cc3ccc(NC(=O)NCc4ccc(OC(F)(F)F)cc4)cc3cn2)c1`, the Imax came out at 12.7%.

A further assay deals with T1, Bifunctional epoxide hydrolase 2 (Mus musculus, UniProt P34914).
T1 sequence (P34914 whole entry): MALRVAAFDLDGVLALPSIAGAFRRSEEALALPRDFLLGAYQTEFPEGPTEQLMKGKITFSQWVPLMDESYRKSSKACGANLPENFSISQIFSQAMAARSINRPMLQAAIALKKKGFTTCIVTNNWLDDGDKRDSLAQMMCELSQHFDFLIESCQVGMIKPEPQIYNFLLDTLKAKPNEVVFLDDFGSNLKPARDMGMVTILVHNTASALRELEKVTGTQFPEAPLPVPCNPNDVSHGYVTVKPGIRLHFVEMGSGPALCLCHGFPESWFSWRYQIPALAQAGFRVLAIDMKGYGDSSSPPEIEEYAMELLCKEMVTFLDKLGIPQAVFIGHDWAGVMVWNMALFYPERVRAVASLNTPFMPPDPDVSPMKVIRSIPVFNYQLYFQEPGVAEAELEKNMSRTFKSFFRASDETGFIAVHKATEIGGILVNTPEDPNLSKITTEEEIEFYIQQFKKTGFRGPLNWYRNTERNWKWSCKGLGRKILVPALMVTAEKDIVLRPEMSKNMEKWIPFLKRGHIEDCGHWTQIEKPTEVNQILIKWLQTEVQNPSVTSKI
The assay can be described thus: biochemical.
Settings: not given
By IC50 is commonly meant the point on the concentration scale where inhibition reaches its midpoint. For `O=C(NCc1ccc(OC(F)(F)F)cc1)NC1CCN(C(=O)Cc2ccc3c(c2)OCO3)CC1`, inhibition was half-maximal at 0.00085 µM (IC50).

The compound `COc1cc(OC)cc(-c2cc3ccc(NC(=O)NCc4ccc(OC(F)(F)F)cc4)cc3cn2)c1` registered a half-inhibitory concentration (IC50) of 0.00195 µM.

Take `COc1cc(CC(=O)N2CCC(NC(=O)NCCN(C)C)CC2)cc(OC)c1`: inhibition was half-maximal at 15.7 µM (IC50).

As for `CCC(=O)N1CCC(CNC(=O)Nc2ccc3cc(-c4cc(OC)cc(OC)c4)ncc3c2)CC1`, it took 0.00524 µM to reach half-maximal inhibition (IC50).

`CCC(=O)N1CCC(NC(=O)NC2CCN(C(=O)Cc3cc(OC)cc(OC)c3)CC2)CC1`: the IC50 is 0.163 µM.

As to `COc1cc(CCC(=O)N2CCC(NC(=O)NCc3ccc(OC(F)(F)F)cc3)CC2)cc(OC)c1`, the concentration for half-maximal inhibition (IC50) was determined as 0.00073 µM.

Consider `O=C(Cc1ccccn1)Nc1cccc(CC(=O)N2CCC(NC(=O)NCc3ccc(OC(F)(F)F)cc3)CC2)c1`, for which half-maximal inhibition (IC50) required 0.0031 µM.

For `CC(C)CNC(=O)NC1CCN(C(=O)Cc2ccc3c(c2)OCO3)CC1`, the IC50 was 0.0253 µM.

In the case of `CN(C)C(=O)NCCC/C=C/c1ccc2c(c1)OCO2`, the IC50 was determined as 0.26 µM.

In turn, `CCC(=O)N1CCC(CNc2c(NC3CCN(C(=O)Cc4cc(OC)cc(OC)c4)CC3)c(=O)c2=O)CC1` returned an IC50 of 164 µM.

Consider `COc1ccc(CC(=O)N2CCC(NC(=O)NCc3ccc(OC(F)(F)F)cc3)CC2)cc1OC`, for which the IC50 was determined as 0.00423 µM.

For `CC(C)CNC(=O)NCC1CCN(C(=O)Cc2ccc3c(c2)OCO3)CC1`, the half-maximal inhibitory concentration (IC50) was determined as 0.211 µM.

As for `CCC(=O)N1CCC(CNC(=O)Nc2ccc3c(c2)CNC(c2cc(OC)cc(OC)c2)C3)CC1` (centres undefined), the IC50 came to 0.0397 µM.

In turn, `CC(C)CNC(=O)N1CCC(NC(=O)Cc2ccc3c(c2)OCO3)CC1` came in with a concentration for half-maximal inhibition (IC50) of 3.47 µM.

`COc1cc(OC)cc(C(=O)N2CCC(NC(=O)NCc3ccc(OC(F)(F)F)cc3)CC2)c1` came in with an IC50 of 0.00225 µM.

Turning to `CCC(=O)NCCCCNC(=O)NC1CCN(C(=O)Cc2cc(OC)cc(OC)c2)CC1`, 1.63 µM corresponded to half-maximal inhibition (IC50).

For `CC(C)CNC(=O)NCCCC#Cc1ccc2c(c1)OCO2`, the 50% inhibitory concentration (IC50) amounted to 0.0219 µM.

For the compound `CN(C)C(=O)NCCCC/C=C/c1ccc2c(c1)OCO2`, half-maximal inhibition (IC50) was put at 6.44 µM.

The compound `CS(=O)(=O)c1ccc(CC(=O)N2CCC(NC(=O)NCc3ccc(OC(F)(F)F)cc3)CC2)cc1` came in with an IC50 of 0.00377 µM. This IC50 is about 1700-fold lower than that of the compound before.

`CC(C)CNC(=O)NCCCCNC(=O)Cc1ccc2c(c1)OCO2` came in with an IC50 of 0.00188 µM.

In turn, `CC(C)CNC(=O)NCCNC(=O)Cc1ccc2c(c1)OCO2` registered an IC50 of 4.31 µM. Compared with the last compound, the IC50 is about 2300-fold higher.

Regarding `CCC(=O)N1CCC(CNC(=O)NC2CCN(C(=O)Cc3cccc(OC)c3)CC2)CC1`, the half-maximal inhibitory concentration (IC50) was found to be 0.00613 µM.

In turn, `O=C(NCc1ccc(OC(F)(F)F)cc1)NC1CCN(C(=O)Cc2ccc(OC(F)(F)F)cc2)CC1` yielded an IC50 of 0.00224 µM. This IC50 is about 2.7-fold lower than that of the compound before.

`CC(C)CNC(=O)NCCCCCNC(=O)Cc1ccc2c(c1)OCO2` came in with a 50% inhibitory concentration (IC50) of 0.261 µM.

The compound `CCC(=O)N1CCC(CNC(=O)NC2CCN(C(=O)Cc3cccc(NC(=O)Cc4ccccn4)c3)CC2)CC1` showed a concentration for half-maximal inhibition (IC50) of 0.0203 µM.

Compound `CCC(=O)N1CCC(CNC(=O)NC2CCN(C(=O)Cc3ccc4c(c3)OCO4)CC2)CC1` gave an IC50 of 0.00961 µM.

For `O=C(Cc1ccccn1)Nc1cccc(CC(=O)N2CCC(NC(=O)NCC3CCOCC3)CC2)c1`, it took 0.0553 µM to reach half-maximal inhibition (IC50).

Consider `CC(C)CNC(=O)NCCC/C=C/c1ccc2c(c1)OCO2`, for which the half-inhibitory concentration (IC50) came to 0.0113 µM.

`COc1ccc(CC(=O)N2CCC(NC(=O)NCC(C)C)CC2)cc1OC` displayed an IC50 of 0.0202 µM.

`CC(C)C(=O)NCCC/C=C/c1ccc2c(c1)OCO2` came in with an IC50 of 4.95 µM.

On to `CCC(=O)N1CCC(CNC(=O)NC2CCN(C(=O)Cc3ccc(OC(F)(F)F)cc3)CC2)CC1`, for which 0.0101 µM corresponded to half-maximal inhibition (IC50). Compared with the last compound, the IC50 is about 490-fold lower.

The compound `CN(C)C(=O)N1CCC(NC(=O)Cc2ccc3c(c2)OCO3)CC1` yielded a concentration for half-maximal inhibition (IC50) of 6.39 µM.

The compound `COc1cc(CC(=O)N2CCC(NC(=O)NCC3CCOCC3)CC2)cc(OC)c1` came in with an IC50 of 0.0185 µM.

Consider `CCC(=O)N1CCC(CNC(=O)NC2CCN(C(=O)Cc3cccc(OC(F)(F)F)c3)CC2)CC1`, for which the midpoint of inhibition, the IC50, lay at 0.0188 µM.

Turning to `O=C(Cc1ccc2c(c1)OCO2)NCCCCNC(=O)NCC1CCOCC1`, half-maximal inhibition (IC50) was put at 1.27 µM. This IC50 is about 68-fold higher than that of the compound before.

`O=C(NCc1ccc(OC(F)(F)F)cc1)NC1CCN(C(=O)Cc2cccc(OC(F)(F)F)c2)CC1`: 0.00091 µM corresponded to half-maximal inhibition (IC50).

Turning to `COc1cc(CC(=O)N2CCC(NC(=O)NCc3ccc(C#N)cc3)CC2)cc(OC)c1`, the IC50 stood at 0.0146 µM. This IC50 lies about 16-fold higher than the previous one.

With `COc1cc(OC)cc(C2Cc3ccc(NC(=O)NCc4ccc(OC(F)(F)F)cc4)cc3CN2)c1` (centres undefined), the IC50 was determined as 0.00434 µM.

For `CC(C)CNC(=O)NC1CCN(CCc2ccc3c(c2)OCO3)CC1`, the IC50 turned out to be 1.33 µM.

The compound `CC(C)CNC(=O)NCCCNC(=O)Cc1ccc2c(c1)OCO2` returned a half-inhibitory concentration (IC50) of 4.5 µM.

With `CN(C)C(=O)NC1CCN(C(=O)Cc2ccc3c(c2)OCO3)CC1`, the 50% inhibitory concentration (IC50) was 64.9 µM.

`COc1cc(CC(=O)N2CCC(NC(=O)Nc3ccc(OC(F)(F)F)cc3)CC2)cc(OC)c1` yielded an IC50 of 0.0157 µM.

Consider `COc1cccc(CC(=O)N2CCC(NC(=O)NCc3ccc(OC(F)(F)F)cc3)CC2)c1`, for which 0.00054 µM corresponded to half-maximal inhibition (IC50).

`COc1cc(CC(=O)N2CCC(NC(=O)NCC(C)C)CC2)cc(OC)c1` registered an IC50 of 0.0109 µM.
